In US20050137130A1, “Medical treatment” (priority 2001, published 2005):

How the values were obtained:
[1] = test system: activated human CD4+ T cells; experiment: Cytokine production (ELISA) by human CD4+ T cells stimulated with anti-CD3/CD28 beads and Delta1 beads, with added soluble protein; format: cell-based; conditions: increasing amounts of soluble protein in culture medium, 3 days
Method: M450 Streptavidin Dynabead™ magnetic beads (Dynal, USA) were coated with an anti-human-IgG4 biotinylated monoclonal antibody (BD Bioscience, 555879) by rotating them in the presence of the antibody for 30 minutes at room temperature. Beads were washed three times with PBS (1 ml). They were further incubated with hDelta1-hIgG4 (see Example 1 above) for 2 hours at room temperature and then washed three times with PBS (1 ml).
Human peripheral blood mononuclear cells (PBMC) were purified from blood using Ficoll-Paque separation medium (Pharmacia). Briefly, 28 ml of blood were overlaid on 21 ml of Ficoll-Paque separation medium and centrifuged at 18-20° C. for 40 minutes at 400 g. PBMC were recovered from the interface and washed 3 times before use for CD4+ T cell purification.
The CD4+ T cells were incubated in triplicates in a 96-well-plate (flat bottom) at 10^5 CD4/well/200 μl in RPMI medium containing 10% FCS, glutamine, penicillin, streptomycin and β2-mercaptoethanol.
Cytokine production was induced by stimulating the cells with anti-CD3/CD28 T cell expander beads from Dynal at a 1:1 ratio (bead/cell) in the presence of beads coated with hDelta1-IgG4Fc fusion protein (Example 1 above) at a 5:1 ratio (beads/cell). In some wells, increasing amounts of soluble hdelta1-IgG4Fc fusion protein were also added.
(§1) The supernatants were removed after 3 days of incubation at 37° C./5% CO2/humidified atmosphere and cytokine production was evaluated by ELISA using Pharmingen kits OptEIA Set human IL10 (catalog No. 555157), OptEIA Set human IL-5 (catalog No. 555202) for IL-10 and IL-5 respectively according to the manufacturer's instructions.
Human peripheral blood mononuclear cells (PBMC) were purified from blood using Ficoll-Paque separation medium (Pharmacia). […]
as §1, with “(Catalog” for “(catalog”, “instructions. […]” for “instructions.”

[2] = test system: Notch signalling in CHO-N2 (N27#11) cells expressing full length human Notch2; experiment: Antagonist assay of Notch signalling from Delta-coated Dynabeads (N27#11 luciferase reporter); format: cell-based; conditions: soluble protein, N27#11 reporter cells; for inhibition of Notch signalling from Delta beads compared to control: IgG4Fc as control
Method: Fc tagged Notch signalling modulators were immobilised on Streptavidin-Dynabeads (CELLection Biotin Binder Dynabeads [Cat. No. 115.21] at 4.0×10^8 beads/ml from Dynal (UK) Ltd; “beads”) in combination with biotinylated α-IgG-4 (clone JDC14 at 0.5 mg/ml from Pharmingen [Cat. No. 555879]) as follows:
A volume of Dynabeads beads corresponding to the total number required was removed from a stock of beads at 4.0×10^8 beads/ml. This was washed twice with 1 ml of PBS, and resuspended in a final volume of 100 μl of PBS containing a biotinylated anti-IgG4 antibody (clone JDC14 at 0.5 mg/ml from Pharmingen [Cat. No. 555879]) in a sterile Eppendorf tube and placed on shaker at room temperature for 30 minutes. The amount of biotinylated anti-IgG4 antibody needed to coat the beads was calculated relative to the fact that 1×10^7 streptavidin Dynabeads bind a maximum of 2 μg of antibody.
After coating the beads with antibody they were washed 3 times with 1 ml of PBS and finally resuspended in mDelta1-IgG4Fc protein diluted in PBS. Beads were coated in a solution of […] protein (usually 5 μg of mDelta1-IgG4Fc protein was added per 10^7 beads to be coated) and the ligand was allowed to bind to the beads in a 1 ml volume for 2 h at room temperature (or 4° C. overnight) on a rotary shaker to keep the beads in suspension. […]
To set up the bead antagonist assay, N27#11 cells (T80 flask) were removed using 0.02% EDTA solution (Sigma), spun down and resuspended in 10 ml DMEM plus 10%(HI) FCS plus glutamine plus P/S. Ten μl of cells were counted and the cell density was adjusted to 2.0×10^5 cells/ml with fresh DMEM plus 10%(HI) FCS plus glutamine plus P/S. The reporter cells were plated out at 100 μl per well of a 96-well plate (i.e. 2×10^4 cells per well) and were placed in an incubator to settle down for at least 30 minutes. […]
The following day 150 μl of supernatant was then removed from all the wells, 100 μl of SteadyGlo™ luciferase assay reagent (Promega) was added and the resulting mixture left at room temperature for 5 minutes. […] Luminescence was then read in a TopCount™ (Packard) counter. […]

| Substance | effect of added soluble protein on the IL-10 enhancement by bead-immobilised Delta1 [1] | inhibition of Notch signalling from Delta beads compared to control [2] | inhibition of Notch signalling from Delta beads, compared with hDelta1-IgG4Fc ([2]; Delta-coated Dynabeads) |
| --- | --- | --- | --- |
| hJagged1EGF1&2-IgG4Fc: human jagged1 sequence up to the end of EGF2 (leader, amino terminal, DSL, EGF1+2) fused to the Fc domain of human IgG4 (SEQ ID NO: 10) | inhibited | significant inhibition compared to control | substantially the same inhibition of Notch signalling |
| hDelta1-IgG4Fc: fusion protein comprising the extracellular domain of human Delta1 fused to the Fc domain of human IgG4 (SEQ ID NO: 5) | inhibited | significant inhibition compared to control |  |
